# Source: patent publication US20260176289A1, “SMALL MOLECULE INHIBITORS OF KRAS PROTEINS” (Merck Sharp & Dohme LLC, priority 2022, published 2026)
# Biological target: HRAS (Homo sapiens, UniProt P01112)
# Test: SOS-catalyzed nucleotide exchange assay (Procedure A, TR-FRET), HRAS
# Assay type: biochemical
# Settings: read-out: HRAS GNE IC50
# Outline: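 Signal ratio (520/495 nm, excitation 340 nm) reports Bodipy-GDP retention on biotinylated RAS after SOS-catalyzed exchange with 3 mM GTP. SOS was 40 nM, except 160 nM for G12V. Room-temperature exchange lasted 60 min (90 min for G12V), following a 60 min compound preincubation.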
# HRAS, sequence (P01112 with tags, fused parts or gaps): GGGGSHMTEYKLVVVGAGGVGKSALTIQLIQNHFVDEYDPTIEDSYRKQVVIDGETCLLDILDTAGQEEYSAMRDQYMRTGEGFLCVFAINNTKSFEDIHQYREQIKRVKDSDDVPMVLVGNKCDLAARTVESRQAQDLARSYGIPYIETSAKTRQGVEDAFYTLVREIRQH
compound,measurement,value
"C#Cc1c(F)ccc2cc(O)cc(-c3nccc4c5c(N6CCOC[C@@](C)(O)C6)nc(OC[C@@]67CCCN6C[C@H](F)C7)nc5n(C)c34)c12 [Ex-18, (S)-4-(8-(8-ethynyl-7-fluoro-3-hydroxynaphthalen-1-yl)-2-(((2R,7aS)-2-fluorotetrahydro-1H-pyrrolizin-7a(5H)-yl)methoxy)-9-methyl-9H-pyrido[4′,3′:4,5]pyrrolo[2,3-d]pyrimidin-4-yl)-6-methyl-1,4-oxazepan-6-ol]",IC50,1820 nM
